Laboratory results from patent US10960088B2, “Macrocycles, cobalt and iron complexes of same, and methods of making and using same” (The Research Foundation for The State University of New York, priority 2013, dated 2021).

What was measured:
[1] = Dissociation of complex over time monitored by 1H NMR; assay type: physicochemical; details: for % Dissociation Anions / % Dissociation Acidic: 10 mM Co^II complex; for % Dissociation Anions: 0.40 mM Na2HPO4, 25 mM K2CO3, 100 mM NaCl, pD 7.5-7.9, 12 hours at 37° C.; for % Dissociation Acidic: pD 3.5-3.9, 100 mM NaCl, 12 hours at 37° C.; for dissociation in presence of phosphate and carbonate (in words) / dissociation under acidic conditions (in words): 10 mM complex, 100 mM NaCl; for dissociation in presence of phosphate and carbonate (in words): 0.40 mM Na2HPO4, 25 mM K2CO3, pD 7.5-7.9, 12 hrs at 37° C.; for dissociation under acidic conditions (in words): D2O, pD 3.5-3.9, 1 hr vs 12 hrs (NOPE 4 hrs) at 37° C.
Method: Dissociation of the Co^II complexes was monitored via ^1H NMR spectroscopy of samples incubated at 37° C. over a period of 12 hours. To monitor acid dissociation, samples contained 10 mM Co^II complex, 100 mM NaCl, and 3-5 mM 3-(trimethylsilyl)-1-propanesulfonic acid sodium salt as a standard at pD 3.5-3.9. To assess the complexes in the presence of biologically relevant anions, solutions contained 10 mM Co^II complex, 100 mM NaCl, 0.40 mM Na2HPO4, 25 mM K2CO3, and 5 mM 3-(trimethylsilyl)-1-propanesulfonic acid sodium salt as a standard. Generally, 1024 transients were collected for each spectrum. […]

[2] = Displacement of Co^II by Cu^II monitored by UV-vis; assay type: physicochemical; details: 10-fold excess of Cu^II
Method: Samples contained 200 μM Co^II complex, 10 mM MES buffer pH 5.5 and 1, 4, or 10 equivalents of CuCl2. The formation of the Cu^II complexes was monitored at 264 nm, 286 nm, 312 nm and 310 nm for [Cu(TCMT)]^2+, [Cu(NOPE)]^2+, [Cu(TCMC)]^2+, and [Cu(CCRM)]^2+, respectively. A previously reported procedure was followed.

SMILES	% Dissociation Anions [1] [%]	% Dissociation Acidic [1] [%]	dissociation in presence of phosphate and carbonate (in words) [1]	dissociation under acidic conditions (in words) [1]	dissociation under acidic conditions within the first hour ([1]; pD 3.5-3.9, 37° C., first hour) [%]	dissociation with competing Cu^II (in words) [2]	dissociation with competing Cu^II ([2]; over 4 hours) [%]
NC(=O)CN1CCCN(CC(N)=O)CCN(CC(N)=O)CCCN(CC(N)=O)CC1.[Co+2] [[Co(CCRM)]^2+]	5	95	doesn't dissociate	doesn't dissociate	95	dissociating completely within one hour	
NC(=O)CN1CCOCCOCCN(CC(N)=O)CCOCC1.[Co+2] [[Co(NOPE)]^2+]	<1	16	doesn't dissociate	doesn't dissociate		dissociating completely within one hour	
NC(=O)CN1CCN(CC(N)=O)CCN(CC(N)=O)CCN(CC(N)=O)CC1.[Co+2] [[Co(TCMC)]^2+]	2	7	doesn't dissociate	doesn't dissociate		inert to dissociation	
NC(=O)CN1CCN(CC(N)=O)CCN(CC(N)=O)CC1.[Co+2] [[Co(TCMT)]^2+]	5	1	doesn't dissociate	doesn't dissociate			~15
